System: mouse leukemia P388 cells
Experiment: Assay of antitumor activity: increase in life span of mice implanted with P388 leukemia
Type: in vivo
Conditions: CDF1 mice, P388 cells 10^6 cells/mouse i.p.; compound i.p. on first and fifth day after implantation; observed for 60 days; ILS from median survival days
Experimental: (1) Assay of antitumor activity
0.1 ml (10^6 cells/mouse) portions of mouse leukemia P388 cells were implanted intraperitoneally into 7-week-old CDF1 mice. […] From the results were calculated increases in life span (ILS, %) according to the following equation. In the following equation, T means median survival days of the chemical administration group, and C means median survival days of the control group. [formula]
Antitumor activity is shown as the relative ratio in the case where the ILS of dolastatin 10 is supposed to be 100.

dolastatin 10
Antitumor activity (relative ratio of ILS, ILS of dolastatin 10 supposed to be 100): 100

From patent publication US5767237A, “Peptide derivatives” (Teikoku Hormone Mfg. Co., Ltd., priority 1993, dated 1998)
